≈ marks a conversion by molar mass, not a printed value. Calls of active or inactive are those of the source. No cut-off for these calls is given here.
Experiments:
Staphylococcus aureus [1] = experiment: Antibacterial activity against Staphylococcus aureus UC9218 in presence of 5% human serum; assay type: functional
Staphylococcus aureus [2] = experiment: Antibacterial activity against Staphylococcus aureus UC9218; assay type: functional
[3] = Acid dissociation constant, pKa by pressure-assisted capillary electrophoresis method; assay type: physicochemical
Albumin [4] = target: T1, Albumin (Homo sapiens, UniProt P02768); experiment: Displacement of fluorescent dansyl sarcosine from human serum albumin site II on subdomain IIIA
Staphylococcus aureus [5] = experiment: Antibacterial activity against Staphylococcus aureus in mouse bacteremia model; assay type: functional
Staphylococcus aureus [6] = experiment: Antibacterial activity against Staphylococcus aureus UC9218 in presence of 10% human serum; assay type: functional
Albumin [7] = target: T1, Albumin; experiment: Binding to high affinity site of human serum albumin; assay type: ADME

T1 sequence (P02768 whole entry): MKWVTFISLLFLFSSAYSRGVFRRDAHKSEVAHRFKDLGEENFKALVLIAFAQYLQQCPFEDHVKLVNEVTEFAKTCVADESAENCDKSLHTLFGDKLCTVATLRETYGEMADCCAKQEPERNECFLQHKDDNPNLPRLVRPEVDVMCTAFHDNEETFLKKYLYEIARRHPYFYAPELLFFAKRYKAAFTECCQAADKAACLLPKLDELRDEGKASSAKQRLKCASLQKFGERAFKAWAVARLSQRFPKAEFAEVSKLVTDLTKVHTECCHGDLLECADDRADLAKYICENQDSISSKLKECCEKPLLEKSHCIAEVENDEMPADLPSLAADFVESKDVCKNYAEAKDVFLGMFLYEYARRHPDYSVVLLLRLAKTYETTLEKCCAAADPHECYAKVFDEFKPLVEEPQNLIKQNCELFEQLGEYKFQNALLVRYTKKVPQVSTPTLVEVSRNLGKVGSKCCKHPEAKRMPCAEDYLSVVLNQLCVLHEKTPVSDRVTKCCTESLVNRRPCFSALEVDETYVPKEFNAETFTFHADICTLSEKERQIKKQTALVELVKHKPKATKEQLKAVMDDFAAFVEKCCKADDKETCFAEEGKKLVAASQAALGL

Compound	MIC (Staphylococcus aureus [1])	MIC (Staphylococcus aureus [2])	pKa [3]	Kd (Albumin [4])	MIC (Staphylococcus aureus [6])	Kd (Albumin [7])	Activity (Staphylococcus aureus [5])	ED50 (Staphylococcus aureus [5])
O=C(Nc1ccc([N+](=O)[O-])cc1C(=O)O)c1cccc(S(=O)(=O)N2CCOCC2)c1	16 µg/mL	4 µg/mL (≈ 9.19 µM)	3.44	4.4 µM				
O=C(Nc1ccccc1C(=O)O)c1cccc(S(=O)(=O)N2CCOCC2)c1	> 128 µg/mL	> 128 µg/mL	3.18	6 µM				
O=C(Nc1ccc(F)cc1C(=O)O)c1cccc(S(=O)(=O)N2CCOCC2)c1	128 µg/mL	128 µg/mL (≈ 313 µM)	2.92	6.6 µM				
N#Cc1ccc(NC(=O)c2cc(SCc3ccccc3)on2)c(C(=O)O)c1		0.125 µg/mL (≈ 0.329 µM)			4 µg/mL			
COc1ccc(NC(=O)c2cccc(S(=O)(=O)N3CCOCC3)c2)c(C(=O)O)c1	> 128 µg/mL	> 128 µg/mL	3.12	8.1 µM				
Cc1ccc(NC(=O)c2cccc(S(=O)(=O)N3CCOCC3)c2)c(C(=O)O)c1	> 128 µg/mL	> 128 µg/mL	3.36	7.5 µM				

Now from value to compound, other results behind:

MIC (Staphylococcus aureus [1])	MIC (Staphylococcus aureus [2])	pKa [3]	Kd (Albumin [4])	MIC (Staphylococcus aureus [6])	Kd (Albumin [7])	Compound	Activity (Staphylococcus aureus [5])	ED50 (Staphylococcus aureus [5])
	1 µg/mL (≈ 2.5 µM)			8 µg/mL		N#Cc1ccc(NC(=O)c2ccc(S(=O)(=O)N3CCCC3)cc2)c(C(=O)O)c1	inactive	
2 µg/mL	1 µg/mL (≈ 2.41 µM)	2.56	5.3 µM	4 µg/mL	14 µM	N#Cc1ccc(NC(=O)c2ccc(S(=O)(=O)N3CCOCC3)cc2)c(C(=O)O)c1		> 200 mg/kg
	0.125 µg/mL (≈ 0.259 µM)			8 µg/mL		N#Cc1ccc(NC(=O)c2ccc(S(=O)(=O)N3CCc4cc(Cl)ccc43)cc2)c(C(=O)O)c1	inactive	
32 µg/mL	4 µg/mL (≈ 9.41 µM)	2.81	6.5 µM			O=C(Nc1ccc(Cl)cc1C(=O)O)c1cccc(S(=O)(=O)N2CCOCC2)c1		
32 µg/mL	4 µg/mL (≈ 8.52 µM)	2.79	4.8 µM			O=C(Nc1ccc(Br)cc1C(=O)O)c1cccc(S(=O)(=O)N2CCOCC2)c1		
	32 µg/mL (≈ 70.4 µM)			> 64 µg/mL		CCCN(CCC)S(=O)(=O)c1ccc(C(=O)Nc2cc3ccccc3cc2C(=O)O)cc1		
	0.125 µg/mL (≈ 0.233 µM)			64 µg/mL		O=C(Nc1ccc(Br)cc1C(=O)O)c1ccc(S(=O)(=O)N2CCc3cc(Cl)ccc32)cc1		

— ChEMBL document CHEMBL1139792, “Correlation of carboxylic acid pKa to protein binding and antibacterial activity of a novel class of bacterial translation inhibitors” (Bioorg Med Chem Lett, 2007)
